Experimental data: patent US20090099218A1, “SYNTHESIS OF NOVEL TUBULIN POLYMERIZATION INHIBITORS: BENZOYLPHENYLUREA (BPU) SULFUR ANALOGS” (priority 2007, published 2009)

Columns and labels:
[1] = In vivo dose-finding study; settings: for toxicity: 20 mg/kg and 30 mg/kg twice per week i.p., 4 weeks, six mice; for remaining animals that lost >15% of their weight: 50 mg/kg thrice per week i.p.; for mice that died in the 3rd week: mouse, in vivo
Description: Both compounds were explored by the i.p. route in cohorts of six mice each, with a duration of treatment of 4 weeks. […] Therefore, 50 mg/kg twice per week was explored. […] Therefore, the dose was escalated to 50 mg/kg thrice per week. In the 6n and 7d groups, respectively, two and one of the mice died in the 3rd week, and three of four and four of five of the remaining animals lost >15% of their weight. Thus, for 28-day efficacy studies following an i.p. route, we selected 50 mg/kg twice a week for both compounds.

[2] = test system: 11 pancreatic cancer cell line panel; assay: Clonogenic growth, pancreatic cancer cell line panel; assay type: cell-based; settings: doses above 0.5 μmol/L
Description: The cell lines ASPC1, MiaPaca2, HS766T, and L36PL were obtained from the American Tissue Culture Collection and are derived from pancreas carcinomas. The cell lines Panc1, Panc203, and Panc1005 are low-passage pancreas cell lines. The cell lines XPA3 and XPA4 are lowpassage. The cell lines E3LZ10 and E3JD13 are lowpassage pancreas cell lines. For clonogenic assessment, 500 cells per well were seeded in six-well plates with enriched RPMI (10% fetal bovine serum+1% penicillin/streptomycin) and exposed to increasing drug concentrations for 96 h. After this, the drug was removed, and the cells were allowed to grow for 14 days before manual colony counting. Each experiment was done in duplicate for each drug concentration and was carried out independently at least thrice. For MAPT protein and mRNA expression analysis, the cell lines were grown in six-well plates with enriched RPMI. When the cells reached a 60% to 70% confluence, they were washed twice with chilled PBS; lysis buffer was added to the plates; and the cells were scraped for protein extraction. An identical experimental set was lysed with RLT (Qiagen) for mRNA extraction.
Clonogenic growth was impaired at concentrations between 0.01 and 0.5 μmol/L (FIG. 35B), with no colony formation at higher doses in 9 of the 11 cell lines. […] Two isoforms of MAPT protein were detected (45 and 65 kDa). […]

[3] = test system: ASPC1; assay: MTT growth inhibition, pancreatic cell line ASPC1; assay type: cell-based; settings: Homo sapiens, ASPC1; MTT assay, 96 h treatment; average of three independent experiments
Description: (§1) Eight of these analogs 6d, 6h, 6n, 6g, 7b, 7d, 8g, and 8h were tested for their cytotoxicity in seven pancreatic cell lines ASPC1, Panc1, Panc203, Panc430, Pane 1005, MiaPaca2, and HS766T using MTT assay. Cells were trypsinized, seeded at 5×10^3 cells/well in 96-well plate and allowed to grow for 24 hours before the treatment with exponential increasing concentrations of drugs in the presence of 10% FBS. After a 96-hours period of treatment, 20 μl of MTT solution (5 mg/ml in PBS) were added to each well, and the plates were then incubated for 3 hours at 37° C. Medium was then replaced with 100 μl of DMSO per well. Plates were shaken and the optical density was measured at 570 nm using a multiwell plate reader (Bio-Rad, Model 550, Bio-Rad Inc., Hercules, Calif.). Each experiment was performed in triplicate for each drug concentration and was carried out independently at least 3 times. The IC50 value was defined as the concentration needed for a 50% reduction in the absorbance calculated based on the survival curves. Response to drug treatment was assessed by standardizing treatment groups to untreated controls. Compounds activity was compared with compound 1.
(§2) Table 2 (Growth Inhibition of Pancreatic Cancer Cell Lines by BPU and BPTU Analogues (IC50) a) compares the cytotoxicity of a series of new derivatives against a panel of seven pancreatic cancer cell lines, as determined by MTT assay. See, Mosmann, T., J. Immunol. Methods 65:55-63 (1983).

[4] = test system: LnCaP; assay: MTT growth inhibition, prostate cancer cell line LnCaP; assay type: cell-based, human; settings: for IC50: Homo sapiens, LNCaP, MTT assay, average of three independent experiments
Description: This MTT assay was carried using human prostate cancer cell lines CWR22R, LAPC-4 and LnCap using Promega cell titer 96 nonradioactive cell proliferation kits. Cells were trypsinized and centrifuged at 1000 rpm for 5 minutes and the supernatant was aspirated. Cells were resuspended with HBSS to a concentration of 10^6/ml. Cell suspension was diluted in serum containing medium to plate 2000 cells/well/0.2 ml. Cell suspension was transferred to sterile solution basin. Cells were plated using multichannel pipette set at 200 μl and incubated overnight for attachment. One plate was prepared for day 0 MTT assay as follows: 100 μl of media was removed from each well using multichannel pipette and 15 μl of MTT reagent was added. Plates were incubated at 37° C. for 4 hrs. […] of STOP solution was added to each well and incubated at room temperature for 1 hour. Absorbance was measured at 570 and 650 nm on plate reader. All the media from the remaining plates were carefully removed and the cells were treated with the media containing drug. MTT assays were done on days 0, 3, 5 and 7. In the preliminary screening […] BPU sulfur analogs 6l, 6h, 6n, 7d and 8h were screened and their activity was compared with compound 1.
Compounds with significant inhibitory activity in pancreatic cancer cells were further evaluated against prostate cancer cell lines in the MTT assay, (Mosmann, T., J. Immunol. Methods 65:55-63 (1983)) and the results were compared to those for compound 1 (Table 3).

[5] = test system: tubulin; assay: Inhibition of tubulin polymerization; assay type: biochemical; settings: for IC50: Tubulin was at 10 μM, read-out: tubulin IC50 ± SD (inhibition of tubulin polymerization)
Description: Briefly, tubulin polymerization was followed turbidimetrically at 350 nm in Beckman model DU7400 and DU7500 recording spectrophotometers equipped with electronic temperature controllers. […] Samples were pre-incubated for 15 min at 30° C. and chilled on ice. GTP (final concentration, 0.4 mmol/L) was added to each reaction mixture, and these were placed in cuvettes held at 0° C. Baselines were established, the temperature was raised to 30° C.

[6] = test system: Panc1; assay: MTT growth inhibition, pancreatic cell line Panc1; assay type: cell-based; settings: for IC50: Homo sapiens, PANC-1, MTT assay, 96 h treatment, average of three independent experiments
Description: as §1, §2

[7] = test system: Panc1005; assay: MTT growth inhibition, pancreatic cell line Panc1005; assay type: cell-based; settings: Homo sapiens, Panc1005; MTT assay, 96 h treatment; average of three independent experiments
Description: as §1, §2

[8] = test system: seven pancreatic cell lines; assay: MTT cytotoxicity, panel of seven pancreatic cancer cell lines; assay type: cell-based; settings: seven pancreatic cell lines
Description: as §1, §2

SMILES	toxicity [1]	remaining animals that lost >15% of their weight [1]	mice with a weight loss of 15% by the 4th week ([1]; 50 mg/kg twice per week i.p.)	mice that died in the 3rd week [1]	cell lines with no colony formation at higher doses [2]	IC50 [3] [nM]	IC50 [4] [nM]	increase in potency over 6m ([4]; LnCap) [fold]	potency as inhibitor of tubulin assembly relative to 7d [5]	IC50 [5] [nM]	IC50 [6] [nM]	increase in potency over 6m ([6]; Panc1) [fold]	IC50 [7] [nM]	potency relative to compound 1, pancreatic cell lines [8] [time]	increase in activity compared to 7c ([6]; Panc1) [fold]
O=C(NC(=O)c1ccccc1[N+](=O)[O-])Nc1ccc(Sc2ncc(Br)cn2)cc1 [Compound 6n, 1-[4-(5-Bromopyrimidin-2-ylsulfanyl)phenyl]-3-(2-nitrobenzoyl)-urea]	not associated with noticeable toxicity	three of four	One of six	two	9 of the 11	1000	50	20	twice as potent	2100	85	8	10000	20	
Nc1ccccc1C(=O)NC(=O)Nc1ccc(Sc2ncc(Br)cn2)cc1 [Compound 7d]	not associated with noticeable toxicity	four of five		one	9 of the 11	450	500			> 40000	90		10000	20	39
